Data: patent publication US20200054633A1 (priority 2017, published 2020)

Conditions: OST placebo, N=74
Description: This study followed a randomized, double-blind, placebo-controlled, parallel-group, multicenter design.
Analysis set for safety: Safety Set included all subjects who received at least 1 dose of study drug.

O=C(O)[C@H]1C2CCC(CC2)[C@@H]1Nc1nc(-c2c[nH]c3ncc(F)cc23)ncc1F [Compound (1), Pimodivir]
30: Worst grade 1 or 2 TEAE (300 mg)
0 n (%): TEAE: Hepatic enzyme increased (300 mg) | TEAE: Herpes simplex (300 mg) | TEAE: Hyperglycaemia (300 mg) | TEAE: Hyperhidrosis (300 mg) | TEAE: Hyperkalaemia (300 mg) | TEAE: Hypertension (300 mg) | TEAE: Hyperuricaemia (300 mg) | TEAE: Hypokalaemia (300 mg) | TEAE: Increased appetite (300 mg) | TEAE: Injury, poisoning and procedural complications (300 mg) | TEAE: Irritability (300 mg) | TEAE: Labyrinthitis (300 mg) | TEAE: Leukopenia (300 mg) | TEAE: Lymphopenia (300 mg) | TEAE: Micturition urgency (300 mg) | TEAE: Middle ear effusion (300 mg) | TEAE: Migraine (300 mg) | TEAE: Muscle spasms (300 mg) | TEAE: Myalgia (300 mg) | TEAE: Myocarditis (300 mg) | TEAE: Nasal congestion (300 mg) | TEAE: Nephropathy (300 mg) | TEAE: Neutropenia (300 mg) | TEAE: Oedema peripheral (300 mg) | TEAE: Oral herpes (300 mg) | TEAE: Otitis media (300 mg) | TEAE: Petechiae (300 mg) | TEAE: Pharyngitis streptococcal (300 mg) | TEAE: Pneumonia chlamydial (300 mg) | TEAE: Protein urine present (300 mg) | TEAE: Pruritus (300 mg) | TEAE: Rash (300 mg) | TEAE: Sensation of foreign body (300 mg) | TEAE: Sinus bradycardia (300 mg) | TEAE: Sinus congestion (300 mg) | TEAE: Skin and subcutaneous tissue disorders (300 mg) | TEAE: Sleep disorder (300 mg) | TEAE: Tachycardia (300 mg) | TEAE: Tinnitus (300 mg) | TEAE: Tremor (300 mg) | TEAE: Upper respiratory tract infection (300 mg) | TEAE: Urinary tract infection (300 mg) | TEAE: Vascular disorders (300 mg) | TEAE: Vertigo (300 mg) | TEAE: White blood cell count decreased (300 mg)
1 n (%): TEAE: Hepatitis C (300 mg) | TEAE: Hyperproteinaemia (300 mg) | TEAE: Hyponatraemia (300 mg) | TEAE: Hypothermia (300 mg) | TEAE: Lymph node pain (300 mg) | TEAE: Lymphadenopathy (300 mg) | TEAE: Musculoskeletal chest pain (300 mg) | TEAE: Neutrophil count decreased (300 mg) | TEAE: Paraesthesia (300 mg) | TEAE: Percussion test abnormal (300 mg) | TEAE: Protein urine (300 mg) | TEAE: Red blood cells urine (300 mg) | TEAE: Renal failure (300 mg) | TEAE: Renal failure chronic (300 mg) | TEAE: Renal impairment (300 mg) | TEAE: Respiratory, thoracic and mediastinal disorders (300 mg) | TEAE: Rhonchi (300 mg) | TEAE: Sinus tachycardia (300 mg) | TEAE: Sleep terror (300 mg) | TEAE: Syncope (300 mg) | TEAE: Thrombocytopenia (300 mg) | TEAE: Tongue discolouration (300 mg) | TEAE: Urine ketone body present (300 mg) | TEAE: Vomiting (300 mg) | TEAE: Wheezing (300 mg)
1 (1.4%): Any Serious TEAE (600 mg)
6 n (%): TEAE: Renal and urinary disorders (300 mg)
0: Worst grade 4 TEAE (300 mg) | Any Serious TEAE at least possibly related to study medication (600 mg)
5 (6.8%): Any Severe (Grade 3) TEAE (600 mg)
3 n (%): TEAE: Nausea (300 mg) | TEAE: Proteinuria (300 mg) | TEAE: Psychiatric disorders (300 mg) | TEAE: Sinusitis (300 mg)
2: Worst grade 3 TEAE (300 mg) | Worst grade 3 or 4 TEAE (300 mg)
5 n (%): TEAE: Infections and infestations (300 mg)
2 n (%): TEAE: Hypophosphataemia (300 mg) | TEAE: Insomnia (300 mg) | TEAE: Musculoskeletal and connective tissue disorders (300 mg)
4 n (%): TEAE: Metabolism and nutrition disorders (300 mg) | TEAE: Nervous system disorders (300 mg)
8 n (%): TEAE: Investigations (300 mg)
